Measurements reported in PubChem BioAssay AID248 (DTP/NCI, 2004).
Several values for one entry are separate records, joined by “and”; a condition that tells them apart may be missing. Identical values can stand only once. Inconclusive results and toxic doses are left out. Cut-off read from the data, not from the text of the source: active = T/C of 150% or more; inactive = T/C below 125%.

System: L1210 leukemia ip in BDF1 mice, survival T/C
Experiment: NCI In Vivo Anticancer Drug Screen. Data for tumor model L1210 Leukemia (intraperitoneal) in B6D2F1 (BDF1) mice
Conditions: endpoint: mean survival time, higher = longer survival
In short: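 Antitumor effect is assessed in tumor-bearing animals. Survival in the compound arm is compared with a vehicle-dosed control arm and expressed as their quotient.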

[1] = dose: 25.0 mg/kg/injection, schedule: Q01DX009 (ip), vehicle: saline with Tween-80
[2] = dose: 50.0 mg/kg/injection, schedule: Q01DX009 (ip), vehicle: saline with Tween-80
[3] = dose: 100.0 mg/kg/injection, schedule: Q01DX001 (ip), vehicle: carboxymethylcellulose (CMC)
[4] = dose: 200.0 mg/kg/injection, schedule: Q01DX001 (ip), vehicle: carboxymethylcellulose (CMC)
[5] = dose: 400.0 mg/kg/injection, schedule: Q01DX001 (ip), vehicle: carboxymethylcellulose (CMC)
[6] = dose: 100.0 mg/kg/injection, schedule: Q01DX009 (ip), vehicle: saline with Tween-80
[7] = dose: 100.0 mg/kg/injection, schedule: Q01DX001 (ip), vehicle: saline
[8] = dose: 200.0 mg/kg/injection, schedule: Q01DX001 (ip), vehicle: saline
[9] = dose: 400.0 mg/kg/injection, schedule: Q01DX001 (ip), vehicle: saline
[10] = dose: 100.0 mg/kg/injection, schedule: Q04DX003 (ip), vehicle: Klucel (hydroxypropylcellulose) (HPC)
[11] = dose: 200.0 mg/kg/injection, schedule: Q04DX003 (ip), vehicle: Klucel (hydroxypropylcellulose) (HPC)
[12] = dose: 400.0 mg/kg/injection, schedule: Q04DX003 (ip), vehicle: Klucel (hydroxypropylcellulose) (HPC)
[13] = dose: 100.0 mg/kg/injection, schedule: Q04DX003 (ip), vehicle: saline with Tween-80
[14] = dose: 200.0 mg/kg/injection, schedule: Q04DX003 (ip), vehicle: saline with Tween-80
[15] = dose: 400.0 mg/kg/injection, schedule: Q04DX003 (ip), vehicle: saline with Tween-80

Measured: T/C

O=C(O)CC(Br)C(=O)c1ccccc1 (stereo not drawn)
inactive: dose: 12.5 mg/kg/injection, schedule: Q01DX009 (ip), vehicle: saline with Tween-80 91 % of control | dose: 12.5 mg/kg/injection, schedule: Q04DX003 (ip), vehicle: saline with Tween-80 96 % of control | [1] 95 % of control | dose: 25.0 mg/kg/injection, schedule: Q04DX003 (ip), vehicle: saline with Tween-80 96 % of control | [2] 95 % of control | dose: 50.0 mg/kg/injection, schedule: Q04DX003 (ip), vehicle: saline with Tween-80 104 % of control

Cln1nnc2ccccc21
inactive: dose: 100.0 mg/kg/injection, schedule: Q04DX002 (ip), vehicle: other 91 % of control | dose: 200.0 mg/kg/injection, schedule: Q04DX002 (ip), vehicle: other 106 % of control

CCCCOC(CN)C(Cl)(Cl)Cl (stereo not drawn)
inactive: dose: 6.0 mg/kg/injection, schedule: Q04DX002 (ip), vehicle: saline 96 % of control and 97 % of control | dose: 12.0 mg/kg/injection, schedule: Q04DX002 (ip), vehicle: saline 104 % of control and 87 % of control | dose: 12.5 mg/kg/injection, schedule: Q01DX009 (ip), vehicle: saline 97 % of control and 98 % of control | dose: 200.0 mg/kg/injection, schedule: Q01DX009 (ip), vehicle: saline 96 % of control and 101 % of control | dose: 200.0 mg/kg/injection, schedule: Q04DX002 (ip), vehicle: saline 97 % of control

CC1(CCCOc2ccc(N)cc2)N=C(N)N=C(N)N1c1ccccc1 (stereo not drawn)
inactive: dose: 5.0 mg/kg/injection, schedule: Q01DX001 (ip), vehicle: saline 96 % of control | dose: 10.0 mg/kg/injection, schedule: Q01DX001 (ip), vehicle: saline 96 % of control | dose: 20.0 mg/kg/injection, schedule: Q01DX001 (ip), vehicle: saline 92 % of control | dose: 40.0 mg/kg/injection, schedule: Q01DX001 (ip), vehicle: saline 92 % of control | dose: 80.0 mg/kg/injection, schedule: Q01DX001 (ip), vehicle: saline 90 % of control

O=C/C=C/C=C/C=C/C=C/C=C\c1ccccc1
inactive: dose: 75.0 mg/kg/injection, schedule: Q01DX001 (ip), vehicle: other 92 % of control | dose: 150.0 mg/kg/injection, schedule: Q01DX001 (ip), vehicle: other 96 % of control | dose: 300.0 mg/kg/injection, schedule: Q01DX001 (ip), vehicle: other 100 % of control

C(=N\N1CCN(/N=C/c2ccc3ccccc3n2)CC1)/c1ccc2ccccc2n1
inactive: [3] 89 % of control | [4] 86 % of control | [5] 94 % of control

c1ccc(-c2oc(-c3ccccc3)c3ccccc23)cc1
inactive: dose: 6.25 mg/kg/injection, schedule: Q01DX009 (ip), vehicle: Klucel (hydroxypropylcellulose) (HPC) 101 % of control | dose: 6.25 mg/kg/injection, schedule: Q04DX003 (ip), vehicle: Klucel (hydroxypropylcellulose) (HPC) 96 % of control | dose: 12.5 mg/kg/injection, schedule: Q01DX009 (ip), vehicle: Klucel (hydroxypropylcellulose) (HPC) 102 % of control | dose: 12.5 mg/kg/injection, schedule: Q04DX003 (ip), vehicle: Klucel (hydroxypropylcellulose) (HPC) 93 % of control | dose: 25.0 mg/kg/injection, schedule: Q01DX009 (ip), vehicle: Klucel (hydroxypropylcellulose) (HPC) 96 % of control | dose: 25.0 mg/kg/injection, schedule: Q04DX003 (ip), vehicle: Klucel (hydroxypropylcellulose) (HPC) 96 % of control

O=Cc1[nH]c(=O)[nH]c(=O)c1Br
inactive: [2] 94 % of control | dose: 100.0 mg/kg/injection, schedule: Q01DX001 (ip), vehicle: saline with Tween-80 112 % of control | [6] 98 % of control | dose: 200.0 mg/kg/injection, schedule: Q01DX001 (ip), vehicle: saline with Tween-80 116 % of control

CCCOc1ccc(C2=C(c3ccccc3)C(=O)C(c3ccccc3)=C2c2ccccc2)cc1
inactive: [3] 94 % of control | [4] 100 % of control | [5] 94 % of control

CCOC(=O)c1cc(/C=C/C=O)oc1N
inactive: dose: 100.0 mg/kg/injection, schedule: Q04DX002 (ip), vehicle: saline with Tween-80 106 % of control | dose: 200.0 mg/kg/injection, schedule: Q04DX002 (ip), vehicle: saline with Tween-80 101 % of control | dose: 400.0 mg/kg/injection, schedule: Q04DX002 (ip), vehicle: saline with Tween-80 97 % of control

CCOC(=O)c1cc2c3n(c1=O)CCCC3C(c1ccc(Cl)c(Cl)c1)OC2=O (stereo not drawn)
inactive: [7] 97 % of control | [8] 104 % of control | [9] 92 % of control

O=C1c2cccc3cccc(c23)C(=O)N1Cc1ccccc1
inactive: [7] 95 % of control | [8] 103 % of control | [9] 91 % of control

Cc1ccc(/C=C/c2ccccc2)cc1
inactive: dose: 75.0 mg/kg/injection, schedule: Q01DX009 (ip), vehicle: Klucel (hydroxypropylcellulose) (HPC) 98 % of control | dose: 150.0 mg/kg/injection, schedule: Q01DX009 (ip), vehicle: Klucel (hydroxypropylcellulose) (HPC) 104 % of control | dose: 300.0 mg/kg/injection, schedule: Q01DX009 (ip), vehicle: Klucel (hydroxypropylcellulose) (HPC) 103 % of control

CC(C(=O)O)C(N)C(=O)O (stereo not drawn)
inactive: dose: 75.0 mg/kg/injection, schedule: Q04DX003 (ip), vehicle: saline 102 % of control | dose: 100.0 mg/kg/injection, schedule: Q01DX001 (ip), vehicle: Klucel (hydroxypropylcellulose) (HPC) 88 % of control | [7] 98 % of control | dose: 150.0 mg/kg/injection, schedule: Q04DX003 (ip), vehicle: saline 102 % of control | dose: 200.0 mg/kg/injection, schedule: Q01DX001 (ip), vehicle: Klucel (hydroxypropylcellulose) (HPC) 97 % of control | [8] 96 % of control | dose: 300.0 mg/kg/injection, schedule: Q04DX003 (ip), vehicle: saline 102 % of control | dose: 400.0 mg/kg/injection, schedule: Q01DX001 (ip), vehicle: Klucel (hydroxypropylcellulose) (HPC) 92 % of control | [9] 95 % of control

O=c1ccccn1Cc1ccccc1
inactive: [10] 106 % of control | [11] 117 % of control | [12] 98 % of control

COC(c1ccccc1)C(Br)C(=O)c1ccccc1 (stereo not drawn)
inactive: dose: 100.0 mg/kg/injection, schedule: Q04DX003 (ip), vehicle: acetone 96 % of control | dose: 200.0 mg/kg/injection, schedule: Q04DX003 (ip), vehicle: acetone 101 % of control | dose: 400.0 mg/kg/injection, schedule: Q04DX003 (ip), vehicle: acetone 95 % of control

O=C(COc1ccc(Cl)cc1)OCCCl
inactive: dose: 87.5 mg/kg/injection, schedule: Q01DX009 (ip), vehicle: other 104 % of control | [10] 95 % of control | dose: 175.0 mg/kg/injection, schedule: Q01DX009 (ip), vehicle: other 98 % of control | [11] 97 % of control | dose: 350.0 mg/kg/injection, schedule: Q01DX009 (ip), vehicle: other 104 % of control | [12] 91 % of control

CCCCCCCCCCCCOc1ccc2ccccc2c1
inactive: [13] 97 % of control | [14] 95 % of control | [15] 108 % of control

Cc1csc(NC(=O)C2C3CCC(O3)C2C(=O)O)n1 (stereo not drawn)
inactive: dose: 5.0 mg/kg/injection, schedule: Q01DX001 (ip), vehicle: carboxymethylcellulose (CMC) 95 % of control | dose: 10.0 mg/kg/injection, schedule: Q01DX001 (ip), vehicle: carboxymethylcellulose (CMC) 101 % of control

C=C(Cl)CN(CC)CCO
inactive: [13] 98 % of control | [14] 102 % of control | [15] 108 % of control

S=c1[nH]c2nccnc2[nH]1
inactive: [1] 96 % of control | [2] 96 % of control | [6] 93 % of control | dose: 200.0 mg/kg/injection, schedule: Q01DX009 (ip), vehicle: saline with Tween-80 97 % of control | dose: 400.0 mg/kg/injection, schedule: Q01DX009 (ip), vehicle: saline with Tween-80 104 % of control
